Laboratory results published in ChEMBL document CHEMBL3608278 (J Med Chem, 2015).

Key:
[1] = molecular target: T1, Potassium voltage-gated channel subfamily A member 3 (Homo sapiens, UniProt P22001); assay: cell-based; parameters: species or system Blood
[2] = molecular target: T1, Potassium voltage-gated channel subfamily A member 3; parameters: species or system Blood

T1 sequence (P22001 whole entry): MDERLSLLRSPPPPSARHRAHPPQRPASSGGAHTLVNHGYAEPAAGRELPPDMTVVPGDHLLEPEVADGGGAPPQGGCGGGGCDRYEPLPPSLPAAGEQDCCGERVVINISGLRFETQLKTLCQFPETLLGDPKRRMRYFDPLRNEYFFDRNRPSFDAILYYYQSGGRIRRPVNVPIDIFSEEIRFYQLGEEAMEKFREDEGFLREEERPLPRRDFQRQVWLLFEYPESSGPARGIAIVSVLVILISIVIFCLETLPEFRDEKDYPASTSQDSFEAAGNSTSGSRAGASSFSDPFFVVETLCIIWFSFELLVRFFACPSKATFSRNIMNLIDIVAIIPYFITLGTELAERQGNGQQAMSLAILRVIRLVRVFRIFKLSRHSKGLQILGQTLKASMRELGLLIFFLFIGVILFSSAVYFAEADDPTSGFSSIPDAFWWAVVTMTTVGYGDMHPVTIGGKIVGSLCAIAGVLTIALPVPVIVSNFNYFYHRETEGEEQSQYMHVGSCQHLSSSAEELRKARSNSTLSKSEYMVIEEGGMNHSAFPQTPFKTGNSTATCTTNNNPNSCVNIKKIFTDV

Row | SMILES | IC50 [1] | IC50 [2]
1 | CC[C@H](C)[C@@H]1NC(=O)[C@@H](NC(=O)[C@H](CO)NC(=O)[C@@H](N)CCCNC(=N)N)CSSC[C@@H](C(=O)O)NC(=O)[C@H]([C@@H](C)O)NC(=O)CNC(=O)[C@@H]2CSSC[C@@H]3NC(=O)[C@H](CCC(N)=O)NC(=O)[C@H](Cc4ccccc4)NC(=O)[C@H](C)NC(=O)[C@H]([C@@H](C)O)NC(=O)[C@H](CSSC[C@H](NC(=O)[C@H](Cc4ccccc4)NC(=O)[C@H](CO)NC(=O)[C@H](CC(C)C)NC(=O)[C@H](CCCNC(=N)N)NC(=O)[C@H](Cc4ccc(O)cc4)NC(=O)[C@H](CCCCN)NC(=O)[C@H](CCSC)NC(=O)[C@H](CO)NC(=O)[C@H](Cc4cnc[nH]4)NC(=O)[C@H](Cc4cccc5ccccc45)NC3=O)C(=O)N[C@@H](CCCNC(=N)N)C(=O)N[C@@H](CCCCN)C(=O)N[C@@H]([C@@H](C)O)C(=O)N2)NC(=O)[C@H](CCCNC(=N)N)NC(=O)[C@H](CO)NC(=O)[C@H](CCCCN)NC(=O)[C@@H]2CCCN2C(=O)[C@H]([C@@H](C)CC)NC(=O)[C@H]([C@@H](C)O)NC(=O)[C@H](CC(=O)O)NC1=O | 0.419 nM | 0.375 nM
2 | CC[C@H](C)[C@@H]1NC(=O)[C@@H](NC(=O)[C@H](CO)NC(=O)[C@@H](N)CCCNC(=N)N)CSSC[C@@H](C(=O)O)NC(=O)[C@H]([C@@H](C)O)NC(=O)CNC(=O)[C@@H]2CSSC[C@@H]3NC(=O)[C@H](CCC(N)=O)NC(=O)[C@H](Cc4ccccc4)NC(=O)[C@H](C)NC(=O)[C@H]([C@@H](C)O)NC(=O)[C@H](CSSC[C@H](NC(=O)[C@H](Cc4ccccc4)NC(=O)[C@H](CO)NC(=O)[C@H](CC(C)C)NC(=O)[C@H](CCCNC(=N)N)NC(=O)[C@H](Cc4ccc(O)cc4)NC(=O)[C@H](CCCCN)NC(=O)[C@H](CCSC)NC(=O)[C@H](CO)NC(=O)[C@H](Cc4cnc[nH]4)NC(=O)[C@H](CCCCN)NC3=O)C(=O)N[C@@H](CCCNC(=N)N)C(=O)N[C@@H](CCCCN)C(=O)N[C@@H]([C@@H](C)O)C(=O)N2)NC(=O)[C@H](Cc2cccc3ccccc23)NC(=O)[C@H](CO)NC(=O)[C@H](CCCCN)NC(=O)[C@@H]2CCCN2C(=O)[C@H]([C@@H](C)CC)NC(=O)[C@H]([C@@H](C)O)NC(=O)[C@H](CC(=O)O)NC1=O | 1.14 nM | 1.65 nM
3 | CC[C@H](C)[C@@H]1NC(=O)[C@@H](NC(=O)[C@H](CO)NC(=O)[C@@H](N)CCCNC(=N)N)CSSC[C@@H](C(=O)O)NC(=O)[C@H]([C@@H](C)O)NC(=O)CNC(=O)[C@@H]2CSSC[C@@H]3NC(=O)[C@H](CCC(N)=O)NC(=O)[C@H](Cc4ccccc4)NC(=O)[C@H](C)NC(=O)[C@H]([C@@H](C)O)NC(=O)[C@H](CSSC[C@H](NC(=O)[C@H](Cc4ccccc4)NC(=O)[C@H](CO)NC(=O)[C@H](CC(C)C)NC(=O)[C@H](CCCNC(=N)N)NC(=O)[C@H](Cc4ccc(O)cc4)NC(=O)[C@H](CCCCN)NC(=O)[C@H](CCSC)NC(=O)[C@H](CO)NC(=O)[C@H](Cc4cccc5ccccc45)NC(=O)[C@H](CCCCN)NC3=O)C(=O)N[C@@H](CCCNC(=N)N)C(=O)N[C@@H](CCCCN)C(=O)N[C@@H]([C@@H](C)O)C(=O)N2)NC(=O)[C@H](CCCNC(=N)N)NC(=O)[C@H](CO)NC(=O)[C@H](CCCCN)NC(=O)[C@@H]2CCCN2C(=O)[C@H]([C@@H](C)CC)NC(=O)[C@H]([C@@H](C)O)NC(=O)[C@H](CC(=O)O)NC1=O | 0.153 nM | 0.255 nM
